Here are results for 1 molecule from PMC11087803 (Proceedings of the National Academy of Sciences of the …, 2024).

The nature of data set [1]: Metabolic stability assay in liver microsomes. Format: in vitro ADME, mouse. For orientation: Liver microsomes are a subcellular fraction often used to study metabolism.
Data set [2] can be described thus: Metabolic stability assay in liver microsomes. Format: in vitro ADME, human.

In general, microsomal CLint refers to a measure of how fast metabolising enzymes remove a compound, apart from limits set by blood flow. Low values mean slow turnover, high ones rapid turnover. Turning to `Cc1nnc2n1-c1ccc(Cl)cc1C(c1ccccc1)=NC2` [Alprazolam], the “MLM t1/2” value in data set [1] (mouse liver microsomes 0.5 mg protein/mL, 2.0 μM compound, 37°C) was 4.93 h. The microsomal CLint at 2 μM in data set [1] (mouse, liver microsomes) stood at 5 µL/min/mg; in data set [2] (human, liver microsomes), 2 µL/min/mg. Besides, the “HLM t1/2” value in data set [2] (human liver microsomes 0.5 mg protein/mL, 2.0 μM compound, 37°C) was determined as 13.9 h.
